Test results from patent US9382306B2, “Octapeptide compounds derived from somatostatin and the therapeutic use thereof” (IPSEN PHARMA S.A.S., priority 2008, dated 2016).
Several values for one entry are separate records, joined by “and”; a condition that tells them apart may be missing. Equal entries are not always repeated. Bridge positions count the residues as written; N and C are the ends. Square brackets hold non-standard residues; d marks the D form. Peptide text beside a SMILES is read from it. ξ: configuration not given here. dPhe(3,5-F2) = N[C@H](Cc1cc(F)cc(F)c1)C(=O)O; dPhe(3-Br) = N[C@H](Cc1cccc(Br)c1)C(=O)O; dPhe(4-Br) = N[C@H](Cc1ccc(Br)cc1)C(=O)O; dPhe(3-F) = N[C@H](Cc1cccc(F)c1)C(=O)O; d2Nal = N[C@H](Cc1ccc2ccccc2c1)C(=O)O; dPhe(2-F) = N[C@H](Cc1ccccc1F)C(=O)O; d(hPhe) = N[C@H](CCc1ccccc1)C(=O)O; Thr(3ξ) = CC(O)[C@H](N)C(=O)O

Experiments:
[1] = biological target: T1, somatostatin receptors sub-type 2 (Homo sapiens, UniProt P30874); assay: Affinity for somatostatin receptors: inhibition of [125I-Tyr11]SRIF-14 binding to membranes of transfected CHO-K1 cells; conditions: competitive inhibition of [125I-Tyr11]SRIF-14 binding, 37° C.
T1 construct: expressed in transfected cells; membrane preparations
Method: (§1) The affinity of the compounds of the invention for the somatostatin receptors is determined by measurement of the inhibition of the bond of [125I-Tyr11]SRIF-14 to membrane preparations of transfected CHO-K1 cells.
(§2) The CHO-K1 cells expressing in a stable fashion each of the sub-types of somatostatin receptors are collected with 0.5 mM of EDTA and centrifuged at 500 g for 5 minutes at 4° C. The pellet is re-suspended in phosphate buffer (PBS) and centrifuged at 500 g for 5 minutes at 4° C. The pellet is re-suspended in Tris 50 mM buffer at pH 7.4 and centrifuged at 500 g for 5 minutes at 4° C. The cells are lyzed by sonication and centrifuged at 39,000 g for 10 minutes. The pellet is re-suspended in Tris 50 mM buffer at pH 7.4, an aliquot is removed for assaying the proteins and the remainder is centrifuged at 50,000 g for 10 minutes. The membranes obtained in this last pellet are stored at −80° C.
(§3) Measurement of the competitive inhibition of the bond of [125I-Tyr11]SRIF-14 (Perkin Elmer) on each of the sub-types of somatostatin receptors is carried out in duplicate in 96-well polypropylene plates. The cell membranes (5 to 20 µg of proteins/well) are incubated with [125I-Tyr11]SRIF-14 (0.05 to 0.1 nM) for 50 to 90 minutes at 37° C. (conditions dependent on the sub-type of receptor) in a HEPES buffer medium 50 mM pH 7.4, comprising 0.2% bovine serum albumin (BSA), MgCl2 5 mM, Trasylol 200 KIU/mL, Bacitracin 0.02 mg/mL, phenylmethylsulphonyl fluoride 0.02 mg/mL.
(§4) The bound [125I-Tyr11]SRIF-14 is separated from the free [125I-Tyr11]SRIF-14 by filtration through GF/C glass fibre plates (Unifilter, Perkin Elmer) pre-impregnated with 0.1% polyethylenimine (P.E.I.), using a Filtermate 96 (Perkin Elmer). The filters are washed with Tris-HCl buffer 50 mM, pH 7.4 at 4° C. and the radioactivity present is determined using a counter (TopCount, Perkin Elmer).
(§5) The data are analyzed by computer-assisted non-linear regression using XLfit 4.2 (IDBS) software.

[2] = biological target: T2, somatostatin receptors sub-type 5 (Homo sapiens, UniProt P35346); assay: as above; conditions: competitive inhibition of [125I-Tyr11]SRIF-14 binding, 37° C.
T2 construct: expressed in transfected cells; membrane preparations
Method: as §1, §2, §3, §4, §5

[3] = Self-assembly study: putting peptides in solution in water, macroscopic, ATR-FTIR, TEM and SAXS analysis; type: physicochemical; conditions: 3 to 15% by mass of peptide in water; form and diameter of the self-assembled structure, or soluble / insoluble
Excerpt: The procedure used comprises three stages: putting the peptides in solution and macroscopic analysis; spectroscopic and microscopic analyses of the structures formed and by small-angle X-ray scattering (SAXS) analyses.
The first stage of the characterization of the derivatives is the production of a range of concentrations from 3 to 15% by mass of peptide in water. Gelling of the solution indicates the presence of self-assembled structures which can be nanotubes but can also be fibres or other self-organised structures.
The object of this stage is to verify the presence of self-assembled structures, to characterize their self-assembly and to visualize them by microscopy.
Infrared spectroscopy makes it possible to obtain information on the method of stacking the peptides in the self-assemblies. The amide band spectrum, reflecting the absorption spectra of the carbonyl functions of the peptide backbone, gives information on the type of hydrogen bond in which these groups are involved (H bonds leading to the formation of the […], a helix or also a loop or random conformation) and consequently on the secondary and tertiary structure of the peptides in solution and self-assembled. The attenuated total reflection technique (ATR-FTIR) uses a crystal on which the solid or liquid sample is deposited. The infrared light is guided through this crystal at an angle which allows it to be reflected several times inside the crystal, which increases the sensitivity of the technique. Due to the performance of this device, it is then possible perform measurements on relatively dilute solutions. The beam penetrates a few microns into the sample deposited on the crystal, which means that only the molecules/structures which are deposited on the surface of the crystal are analyzed. Moreover, this technique is non-destructive.
The assembled structures are then visualized by transmission electron microscopy (TEM). This very powerful technique, allowing magnifications greater than 500,000 times, is one of the few techniques capable of visualizing structures on the nanometric scale. The sample is subjected to an electron beam. The visualization of the transmitted beam is produced either by a photoluminescent screen, or by a CCD camera. The sample in the microscope being under vacuum, it is samples dried after staining with uranyl salts in order to increase contrast which are observed.
The peptide in solution is firstly deposited on a copper grid covered with a film of carbon. After deposition of the materiel, the excess liquid is eliminated. In the same way, the solution of colorant, in our case uranyl acetate, is deposited on the grid, the excess is eliminated and the grid is dried in the open air. It can then be introduced into the microscope.
The samples, liquids or gels, are introduced into a capillary column and subjected to a monochromatic flow of X-rays. The intensity diffused is measured as a function of the scattering angle with respect to the incident angle.
The diffusion patterns thus obtained must be the subject of a correlation with a close theoretical model of the structures present in the sample. In the case where the peptides have self-assembled in the form of hollow nanotubes, the modelling of the experimental data with the theoretical diffusion produced by infinitely long hollow columns makes it possible to determine with precision the diameter of the columns and to estimate their wall thickness (Valery et al. in Biophysical journal, 2004, 86(4), 2484-2501 and Proc. Natl. Acad. Sci., 2003, 100(18) 10258-10262). For polydisperse, nanotubular, fibrilar, micellar or lamellar self-assemblies, it is the correlation of the spectroscopic, microscopic and XR scattering data which makes it possible to estimate a size range for the objects observed.

T2 sequence (P35346 whole entry): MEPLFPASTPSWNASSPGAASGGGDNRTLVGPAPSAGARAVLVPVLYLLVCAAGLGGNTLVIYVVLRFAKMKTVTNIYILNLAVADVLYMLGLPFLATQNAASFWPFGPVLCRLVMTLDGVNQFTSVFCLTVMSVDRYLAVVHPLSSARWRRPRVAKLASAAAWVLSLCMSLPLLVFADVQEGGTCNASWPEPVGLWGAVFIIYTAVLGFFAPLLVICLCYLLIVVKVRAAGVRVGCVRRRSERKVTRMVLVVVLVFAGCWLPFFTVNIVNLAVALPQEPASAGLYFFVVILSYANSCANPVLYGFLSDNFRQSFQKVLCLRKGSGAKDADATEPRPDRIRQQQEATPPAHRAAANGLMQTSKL
T1 sequence (P30874 whole entry): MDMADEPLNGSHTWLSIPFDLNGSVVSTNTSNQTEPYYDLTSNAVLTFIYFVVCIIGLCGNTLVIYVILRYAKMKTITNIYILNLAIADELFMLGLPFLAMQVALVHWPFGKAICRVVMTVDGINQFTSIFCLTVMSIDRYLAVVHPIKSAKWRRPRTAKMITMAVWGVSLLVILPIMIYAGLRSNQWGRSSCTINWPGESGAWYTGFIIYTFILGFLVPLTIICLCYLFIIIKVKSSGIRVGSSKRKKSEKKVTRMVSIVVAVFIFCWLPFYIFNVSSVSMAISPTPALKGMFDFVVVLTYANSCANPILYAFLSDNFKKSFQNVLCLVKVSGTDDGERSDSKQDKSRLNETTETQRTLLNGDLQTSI

SMILES | Ki [1] [nM] | Ki [2] [nM] | Assembly [3]
CC(C)[C@@H]1NC(=O)[C@H](CCCCN)NC(=O)[C@@H](CCc2ccccc2)NC(=O)[C@H](Cc2ccc(O)cc2)NC(=O)[C@@H](NC(=O)[C@H](N)Cc2ccc3ccccc3c2)CSSC[C@@H](C(=O)N[C@H](C(N)=O)C(C)O)NC1=O (stereo partly drawn) [Example 11, H-D-2-Nal^1-cyclo(Cys^2-Tyr^3-D-Homophe^4-Lys^5-Val^6Cys^7)-Thr^8-NH2.2 CH3COOH] (H-[d2Nal]CY[d(hPhe)]KVC[Thr(3ξ)]-NH2; disulfide 2-7) | ≤ 50 | ≤ 1000 | soluble
CC(C)[C@@H]1NC(=O)[C@H](CCCCN)NC(=O)[C@@H](Cc2ccc(Br)cc2)NC(=O)[C@H](Cc2ccc(O)cc2)NC(=O)[C@@H](NC(=O)[C@H](N)Cc2ccc3ccccc3c2)CSSC[C@@H](C(=O)N[C@H](C(N)=O)C(C)O)NC1=O (stereo partly drawn) [Example 12, H-D-2-Nal^1-cyclo(Cys^2-Tyr^3-p-Br-D-Phe^4-Lys^5-Val^6-Cys^7)-Thr^8-NH2.2 CH3COOH] (H-[d2Nal]CY[dPhe(4-Br)]KVC[Thr(3ξ)]-NH2; disulfide 2-7) | ≤ 5 | ≤ 100 | monodisperse peptide nanotubes and 17 nm monodisperse nanotube
CC(C)[C@@H]1NC(=O)[C@H](CCCCN)NC(=O)[C@@H](Cc2ccc(O)cc2)NC(=O)[C@H](Cc2ccc(O)cc2)NC(=O)[C@@H](NC(=O)[C@H](N)Cc2ccc3ccccc3c2)CSSC[C@@H](C(=O)N[C@H](C(N)=O)C(C)O)NC1=O (stereo partly drawn) [Example 14, H-D-2-Nal^1-cyclo(Cys^2-Tyr^3-D-Tyr^4-Lys^5-Val^6-Cys^7)-Thr^8-NH2.2 CH3COOH] (H-[d2Nal]CY[dY]KVC[Thr(3ξ)]-NH2; disulfide 2-7) | ≤ 5 | ≤ 1000 | monodisperse peptide nanotubes and 18 nm monodisperse nanotube
CC(C)[C@@H]1NC(=O)[C@H](CCCCN)NC(=O)[C@@H](Cc2cccc(F)c2)NC(=O)[C@H](Cc2ccc(O)cc2)NC(=O)[C@@H](NC(=O)[C@H](N)Cc2ccc3ccccc3c2)CSSC[C@@H](C(=O)N[C@H](C(N)=O)C(C)O)NC1=O (stereo partly drawn) [Example 15, H-D-2-Nal^1-cyclo(Cys^2-Tyr^3-m-F-D-Phe^4-Lys^5-Val^6-Cys^7)-Thr^8-NH2.2 CH3COOH] (H-[d2Nal]CY[dPhe(3-F)]KVC[Thr(3ξ)]-NH2; disulfide 2-7) | ≤ 5 | ≤ 100 | monodisperse peptide nanotubes and 15.6 nm monodisperse nanotube
CC(C)[C@@H]1NC(=O)[C@H](CCCCN)NC(=O)[C@@H](Cc2ccccc2F)NC(=O)[C@H](Cc2ccc(O)cc2)NC(=O)[C@@H](NC(=O)[C@H](N)Cc2ccc3ccccc3c2)CSSC[C@@H](C(=O)N[C@H](C(N)=O)C(C)O)NC1=O (stereo partly drawn) [Example 16, H-D-2-Nal^1-cyclo(Cys^2-Tyr^3-o-F-D-Phe^4-Lys^5-Val^6-Cys^7)-Thr^8-NH2.2 CH3COOH] (H-[d2Nal]CY[dPhe(2-F)]KVC[Thr(3ξ)]-NH2; disulfide 2-7) | ≤ 5 | ≤ 1000 | monodisperse peptide nanotubes and 17 nm monodisperse nanotube
CC(C)[C@@H]1NC(=O)[C@H](CCCCN)NC(=O)[C@@H](Cc2cc(F)cc(F)c2)NC(=O)[C@H](Cc2ccc(O)cc2)NC(=O)[C@@H](NC(=O)[C@H](N)Cc2ccc3ccccc3c2)CSSC[C@@H](C(=O)N[C@H](C(N)=O)C(C)O)NC1=O (stereo partly drawn) [Example 17, H-D-2-Nal^1-cyclo(Cys^2-Tyr^3-3,5-diF-D-Phe^4-Lys^5-Val^6-Cys^7)-Thr^8-NH2.2 CH3COOH] (H-[d2Nal]CY[dPhe(3,5-F2)]KVC[Thr(3ξ)]-NH2; disulfide 2-7) | ≤ 5 | ≤ 100 | monodisperse peptide nanotubes and 15.3 nm monodisperse nanotube
CC(C)[C@@H]1NC(=O)[C@H](CCCCN)NC(=O)[C@@H](Cc2cccc(Br)c2)NC(=O)[C@H](Cc2ccc(O)cc2)NC(=O)[C@@H](NC(=O)[C@H](N)Cc2ccc3ccccc3c2)CSSC[C@@H](C(=O)N[C@H](C(N)=O)C(C)O)NC1=O (stereo partly drawn) [Example 18, H-D-2-Nal^1-cyclo(Cys^2-Tyr^3-m-Br-D-Phe^4-Lys^5-Val^6-Cys^7)-Thr^8-NH2.2 CH3COOH] (H-[d2Nal]CY[dPhe(3-Br)]KVC[Thr(3ξ)]-NH2; disulfide 2-7) | ≤ 5 | ≤ 100 | 18.4-18.8 nm monodisperse
